Patent US20230278972A1, “SUBSTITUTED HALOALKYL SULFONANILIDE HERBICIDES” (FMC Corporation, priority 2020, published 2023)

What was measured:
Type in all cases: in vivo
kochia (Bassia scoparia) [1] = assay: Test A1 postemergence, kochia; details: 0 to 100 scale (0 no effect, 100 complete control)
Outline: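 Both timings started from seed in a loam-sand blend. Preemergence pots got a directed soil application immediately; postemergence pots were sprayed when seedlings had one or two leaves and stood 2–10 cm. Each compound was prepared in a non-phytotoxic solvent plus surfactant.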

kochia (Bassia scoparia) [2] = assay: Test A1 preemergence, kochia
Outline: (§1)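 Test compounds were formulated in a non-phytotoxic solvent mixture containing a surfactant. For preemergence, seeds sown in a loam soil–sand blend received a directed soil spray. For postemergence, potted plants in the same soil, 2 to 10 cm tall at the one- to two-leaf stage, were sprayed.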

soybean (Glycine max) = assay: Test A1 preemergence, soybean
Outline: as §1

[3] = tested on: Oat, Wild (wild oat, Avena fatua); assay: Test A1 preemergence, Oat, Wild
Outline: as §1

[4] = 31 g ai/ha, 0 to 100 scale (0 no effect, 100 complete control)
[5] = 125 g ai/ha, 0 to 100 scale, 0 no effect, 100 complete control

## Cc1cc(C)c(C2=NOC(C(C)C)C2)cc1NS(=O)(=O)C(F)(F)F (centres unmarked) [Compound 381]
Kochia (Bassia scoparia) [1]; 31 g ai/ha, postemergence
  Kochia plant response rating: 0
Kochia (Bassia scoparia) [1]; Postemergence, 125 g ai/ha, 10 days
  Plant response rating, Kochia: 20
Kochia (Bassia scoparia) [2]; [4]
  Plant response rating, Kochia: 0
Kochia (Bassia scoparia) [2]; [5]
  Plant response rating, Kochia: 60
Soybean (Glycine max); [4]
  Plant response rating, Soybean: 0
Soybean (Glycine max); [5]
  Plant response rating, Soybean: 50
[3]; [4]
  Plant response rating, Oat, Wild: 50
[3]; [5]
  Plant response rating, Oat, Wild: 80
